Laboratory results taken from patent publication US5703239A, “Indanylpiperidines as melatonergic agents” (Bristol-Myers Squibb Company, priority 1996, dated 1997).

target: T1, human ML1B receptor (Homo sapiens, UniProt P49286); experiment: Binding to human melatonergic receptors (2-[125I]-iodomelatonin, NIH 3T3 cell membranes, human ML1B receptor); conditions: IC50 class; 200 pM 2-[125I]-iodomelatonin, 37° C., 1 hour, membranes of NIH 3T3 cells transfected with human ML1B receptor; read-out: Melatonin Binding
T1 construct: expressed in transfected cells; host or cells: NIH 3T3 cells (stably transfected; obtained from S. M. Reppert)
T1 sequence (P49286 1-362): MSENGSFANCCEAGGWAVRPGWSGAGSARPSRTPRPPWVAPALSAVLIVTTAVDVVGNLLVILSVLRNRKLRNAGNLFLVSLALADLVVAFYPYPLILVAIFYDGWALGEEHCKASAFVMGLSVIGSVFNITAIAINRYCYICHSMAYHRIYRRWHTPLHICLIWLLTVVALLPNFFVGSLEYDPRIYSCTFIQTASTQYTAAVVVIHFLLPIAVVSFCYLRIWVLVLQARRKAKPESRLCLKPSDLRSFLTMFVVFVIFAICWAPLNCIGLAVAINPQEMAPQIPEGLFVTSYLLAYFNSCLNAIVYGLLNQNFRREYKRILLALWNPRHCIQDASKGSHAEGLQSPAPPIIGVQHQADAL
Method: Measurement of Binding to Human Melatonergic Receptors The melatonergic binding affinities of various compounds of Formula I were determined by the method of Reppert, S. M., Weaver, D. R., and Ebisawa, R. (Neuron, Volume 13, 1177-1185, 1994). The assays were incubated at 37° C. for 1 hour, and the reaction was terminated by filtration. The filters were washed with wash buffer. […] The reagents, membrane and other techniques used in the melatonergic binding assays are more fully described below: […] Reagents: (a) 50 mM Tris buffer containing 12.5 mM MgCl2, and 2 mM EDTA, pH 7.4 at 37° C. (b) Wash buffer: 20 mM Tris base containing 2 mM MgCl2. pH 7.4 at room temperature. (c) Melatonin (10^-5 M final concentration). (d) 2-[^125 I]-Iodomelatonin, 200 pM final concentration Source: NEN 2. Membrane preparation: NIH 3T3 cells stably transfected with the human ML1B receptor were obtained from S. M. Reppert and maintained. Cells were pelleted when confluent. The supernatant was discarded and the pellets frozen. For preparing membrane homogenates, the pellets are thawed on ice and resuspended in TME buffer, Tris base, MgCl2, EDTA (pH 7.4 at 37° C.), supplemented with aprotinin, leupeptin, and […]. The cells were then homogenized and centrifuged. The resulting pellet was resuspended with a Dounce homogenizer in TME and frozen. At assay, a small aliquot was thawed on ice and resuspended in TME buffer.

Compared with `COCC(=O)N1CCC(C2CCc3ccc(OC)cc32)CC1` (single isomer, unassigned; (+)) [(+)-1-(2-Methoxyacetyl)-4-(6-methoxy-indan-1-yl)piperidine], `CCC(=O)N1CCC(C2CCc3ccc(OC)cc32)CC1` (single isomer, unassigned; (-)) [(-)-4-(6-Methoxy-indan-1-yl)-1-propanoylpiperidine] is lower in IC50: 100 to 250 nM for the first, under 10 nM for the second. The second is the more potent here.

`COc1ccc2c(c1)C(C1CCN(C(=O)C3CC3)CC1)CC2` (single isomer, unassigned; (+)) [(+)-1-(Cyclopropylcarbonyl)-4-(6-methoxy-indan-1-yl)piperidine] and `COc1ccc2c(c1)C(C1CCN(C(=O)C3CC3)CC1)CCC2` (stereo not shown) [1-(Cyclopropylcarbonyl)-4-(7-methoxy-tetralin-1-yl)piperidine] cannot be ordered by IC50: under 10 nM for the first, under 10 nM for the second.

First: COc1ccc2c(c1)C(C1CCN(C=O)CC1)CC2 (single isomer, unassigned; (+)) [(+)-1-Formyl-4-(6-methoxy-indan-1-yl)piperidine]
Second: COc1ccc2c(c1)C(C1CCN(C(C)=O)CC1)CC2 (single isomer, unassigned; (-)) [(-)-1-Acetyl-4-(6-methoxy-indan-1-yl)piperidine]
The IC50 of the first is higher: 10 to 100 nM for the first, under 10 nM for the second. The second is the more potent here.

Compared with `COc1ccc2c(c1)C(C1CCN(C(=O)C(C)C)CC1)CC2` (single isomer, unassigned; (+)) [(+)-4-(6-Methoxy-indan-1-yl)-1-(2-methylpropanoyl)piperidine], `COc1ccc2c(c1)C(C1CCN(C(=O)N(C)C)CC1)CC2` (single isomer, unassigned; (-)) [(-)-N,N-Dimethyl-4-(6-methoxy-indan-1-yl)piperidine-1-carboxamide] is lower in IC50: 10 to 100 nM for the first, under 10 nM for the second. The second is the more potent here.

`COc1ccc2c(c1)C(C1CCN(C(=O)C(F)(F)F)CC1)CC2` (single isomer, unassigned; (+)) [(+)-4-(6-Methoxy-indan-1-yl)-1-(trifluoroacetyl)piperidine] and `CCC(C)(C)C(=O)N1CCC(C2CCc3ccc(OC)cc32)CC1` (stereo not shown) [1-(2,2-Dimethyl-butanoyl)-4-(6-methoxy-indan-1-yl)piperidine] fall in the same range of IC50: 10 to 100 nM for the first, 10 to 100 nM for the second.

`CNC(=O)N1CCC(C2CCc3ccc(OC)cc32)CC1` (single isomer, unassigned; (+)) [(+)-N-Methyl-4-(6-methoxy-indan-1-yl)piperidine-1-carboxamide] and `CCNC(=O)N1CCC(C2CCc3ccc(OC)cc32)CC1` (single isomer, unassigned; (+)) [(+)N-Ethyl-4-(6-methoxy-indan-1-yl)piperidine-1-carboxamide] fall in the same range of IC50: 10 to 100 nM for the first, 10 to 100 nM for the second.

`COc1ccc2c(c1)C(C1CCN(C(=O)C3CC3)CC1)CC2` (single isomer, unassigned; (-)) [(-)-1-(Cyclopropylcarbonyl)-4-(6-methoxy-indan-1-yl)piperidine] and `O=C(C1CC1)N1CCC(C2CCc3ccc(F)cc32)CC1` (stereo not shown) [1-(Cyclopropylcarbonyl)-4-(6-fluoro-indan-1-yl)piperidine] cannot be ordered by IC50: under 10 nM for the first, under 10 nM for the second.

`CCCC(=O)N1CCC(C2CCc3ccc(OC)cc32)CC1` (single isomer, unassigned; (-)) [(-)-1-Butanoyl-4-(6-methoxy-indan-1-yl)piperidine] and `CCCCC(=O)N1CCC(C2CCc3ccc(OC)cc32)CC1` (single isomer, unassigned; (-)) [(-)-4-(6-Methoxy-indan-1-yl)-1-pentanoylpiperidine] cannot be ordered by IC50: under 10 nM for the first, under 10 nM for the second.

`COc1ccc2c(c1)C(C1CCN(C=O)CC1)CC2` (single isomer, unassigned; (-)) [(-)-1-Formyl-4-(6-methoxy-indan-1-yl)piperidine] and `CNC(=O)N1CCC(C2CCc3ccc(OC)cc32)CC1` (single isomer, unassigned; (-)) [(-)-N-Methyl-4-(6-methoxy-indan-1-yl)piperidine-1-carboxamide] cannot be ordered by IC50: under 10 nM for the first, under 10 nM for the second.

`COCC(=O)N1CCC(C2CCc3ccc(OC)cc32)CC1` (single isomer, unassigned; (-)) [(-)-4-(6-Methoxy-indan-1-yl)-1-(2-methoxyacetyl)piperidine] and `CCNC(=O)N1CCC(C2CCc3ccc(OC)cc32)CC1` (single isomer, unassigned; (-)) [(-)-N-Ethyl-4-(6-methoxy-indan-1-yl)piperidine-1-carboxamide] cannot be ordered by IC50: under 10 nM for the first, under 10 nM for the second.

`COc1ccc2c(c1)C(C1CCN(C(=O)C(C)C)CC1)CC2` (single isomer, unassigned; (-)) [(-)-4-(6-Methoxy-indan-1-yl)-1-(2-methyl-propanoyl)piperidine] and `COc1ccc2c(c1)C(C1CCN(C(=O)C3CC3)CC1)CC2` (stereo not shown) [1-Cyclopropylcarbonyl-4-(6-methoxy-indan-1-yl)piperidine] cannot be ordered by IC50: under 10 nM for the first, under 10 nM for the second.

First: COc1ccc2c(c1)C(C1CCN(C(=O)C(F)(F)F)CC1)CC2 (single isomer, unassigned; (-)) [(-)-4-(6-methoxy-indan-1-yl)-1-(trifluoroacetyl)piperidine]
Second: O=C(C1CC1)N1CCC(C2CCc3ccc(OC(F)(F)F)cc32)CC1 (stereo not shown) [1-(Cyclopropylcarbonyl)-4-[6-(trifluoromethoxy)-indan-1-yl]piperidine]
The IC50 of the first is lower: under 10 nM for the first, 10 to 100 nM for the second.

`COc1cc2c(cc1F)CCC2C1CCN(C(=O)C2CC2)CC1` (stereo not shown) [1-(Cyclopropylcarbonyl)-4-(5-fluoro-6-methoxy-indan-1-yl)piperidine] and `COc1cc2c(cc1F)CCC2C1CCN(C(C)=O)CC1` (stereo not shown) [1-Acetyl-4-(5-fluoro-6-methoxy-indan-1-yl)piperidine] cannot be ordered by IC50: under 10 nM for the first, under 10 nM for the second.

`CCc1ccc2c(c1)C(C1CCN(C(=O)C3CC3)CC1)CC2` (stereo not shown) [1-(Cyclopropylcarbonyl)-4-(6-ethyl-indan-1-yl)piperidine] and `O=C(C1CC1)N1CCC(C2CCc3ccccc32)CC1` (stereo not shown) [1-(Cyclopropylcarbonyl)-4-(indan-1-yl)piperidine] cannot be ordered by IC50: under 10 nM for the first, under 10 nM for the second.

Compared with `COc1cccc(CCCOc2ccc3c(c2)C(C2CCN(C(=O)C4CC4)CC2)CC3)c1` (stereo not shown) [1-(Cyclopropylcarbonyl)-4-[6-[3-(3-methoxyphenyl)propyloxy]-indan-1-yl]piperidine], `COc1ccc2c(c1)C(C1CCN(C(=O)c3ccco3)CC1)CC2` (stereo not shown) [1-[(2-Furanyl)carbonyl]-4-(6-methoxy-indan-1-yl)-piperidine] is lower in IC50: 10 to 100 nM for the first, under 10 nM for the second.

`CCCC(=O)N1CCC(C2CCc3cc(F)c(OC)cc32)CC1` (stereo not shown) [1-Butanoyl-4-(5-fluoro-6-methoxy-indan-1-yl)piperidine] and `CCCC(=O)N1CCC(C2CCc3ccc(F)cc32)CC1` (stereo not shown) [1-Butanoyl-4-(6-fluoro-indan-1-yl)piperidine] cannot be ordered by IC50: under 10 nM for the first, under 10 nM for the second.

`COc1ccc2c(c1)C(C1CCN(C=O)CC1)CC2` (stereo not shown) [1-Formyl-4-(6-methoxy-indan-1-yl)piperidine] and `COc1ccc2c(c1)C(C1CCN(C(=O)c3ccoc3)CC1)CC2` (stereo not shown) [1-[(3-Furanyl)carbonyl]4-(6-methoxy-indan-1-yl)-piperidine] cannot be ordered by IC50: under 10 nM for the first, under 10 nM for the second.

First: COc1ccc2c(c1)C(C1CCN(C(=O)c3csc(Cl)c3OC)CC1)CC2 (stereo not shown) [1-[(2-Chloro-3-methoxythien-4-yl)carbonyl]-4-(6-methoxy-indan-1-yl)piperidine]
Second: COc1ccc2c(c1)C(C1CCN(C(=O)c3sccc3Cl)CC1)CC2 (stereo not shown) [1-[(3-Chloro-thien-2-yl)carbonyl]-4-(6-methoxy-indan-1-yl)-piperidine]
The IC50 of the first is higher: 10 to 100 nM for the first, under 10 nM for the second.

`COc1ccc2c(c1)C(C1CCN(C(=O)C3=CCCC3)CC1)CC2` (stereo not shown) [1-[(Cyclopent-1-en-1-yl)carbonyl]-4-(6-methoxy-indan-1-yl)piperidine] showed an IC50 of under 10 nM.
